The values that follow come from patent publication US20050234073A1, “Methods of inhibiting inflammation” (priority 2003, published 2005).

The test system of this assay is C1Rd cells. The assay can be described thus: C1Rd cell presentation of α-galcer to DN32 NKT cells (IL-2 ELISA). It is filed as cell-based, human. The conditions noted are these: C1Rd cells cultured 5 days with inhibitor. The procedure: FIG. 20D is a bar chart showing IL-2 production in C1Rd cells cultured with BMS212122 or vehicle for 5 days that were incubated with α-galcer for 3 hours IL-2 concentrations were measured by ELISA of 24 hour culture supernatants. *, p<0.02.
APCs were incubated with 100 ng/mL α-galcer (kindly provided by Dr. H. Ploegh) for 3 hours, washed three times in PBS and aliquoted into a 96 well plate at 10^6 cells/mL. DN32 cells were added at 1:1 E:T ratio unless otherwise indicated. CD4^+ cells were isolated from spleens of OT-II transgenic mice using positive selection on CD4 magnetic beads (Miltenyi Biotec) and incubated with APCs and 100 μg/mL ovalbumin. The 24.8 NKT cell line was incubated with APCs in the absence of added antigen at E:T=2:1 unless otherwise indicated. Mouse IL-2 production was assessed by ELISA (OptEIA, BD PharMingen) of 24 or 40 hour culture supernatants. APCs were treated with BMS212122 (10 uM dissolved in DMSO; kindly provided by Bristol Myers Squibb, New Jersey) as indicated and washed prior to addition of T or NKT cells. […]
C1Rd is a human B cell line transfected with human CD1d. […] Incubation of C1Rd cells with BMS212122, but not the vehicle, inhibited the presentation of α-galcer as determined by a reduction in IL-2 secretion (FIG. 20D).

As for `Cc1ccc2c(nc(C)n2CCCCC2(C(=O)NCC(F)(F)F)c3ccccc3-c3ccccc32)c1NC(=O)c1ccccc1-c1ccc(C(F)(F)F)cc1` [BMS212122, 9-[4-[2,5-Dimethyl-4-[[[4′-(trifluoromethyl)[1,1′-biphenyl]-2-yl]carbonyl]amino]-1H-benzimidazol-1-yl]butyl]-N-(2,2,2-trifluoroethyl)-9H-fluorene-9-carboxamide], the “presentation of α-galcer (IL-2 secretion)” value is given as “inhibited”.
